Test results reported in patent US20130012465A1 (Boehringer Ingelheim International GmbH, priority 2009, published 2013).
Where two headings read alike, the source gives them in different places.

How the values were obtained:
MDA-MB-468 = assay: triple negative breast cell panel, EC50 2D/3D; assay type: cell-based; details: Homo sapiens; MDA-MB-468, 3D
HCC 1937 = assay: triple negative breast cell panel, EC50 2D/3D; assay type: cell-based; details: Homo sapiens, HCC1937
HCC 1806 = assay: triple negative breast cell panel, EC50 2D/3D; assay type: cell-based; details: Homo sapiens, HCC1806
[1] = test system: HER2-negative metastatic breast cancer; assay: Phase II clinical study, all treated patients (safety, PK, exposure); assay type: in vivo, human
Description: A Phase II, open-label, multicenter trial was conducted in Belgium and Germany. […] For Cohort A this was modified by amendment to clinical benefit (CB), i.e. complete response (CR), partial response (PR) and stable disease (SD) for at least 4 courses. • Secondary endpoints were time to progression, progression-free survival (PFS), overall survival (OS), time to objective response, duration of objective response, safety and pharmacokintics (PK). Clinical benefit (CR, PR, SD) was a secondary endpoint for Cohort B. • A total of 80 patients was planned to be enrolled into the trial: 80, i.e. 40 patients per cohort. […] Additional predose plasma samples were taken on Day 15 of Course 1, on Day 1 of Course 2 and on Day 1 of all subsequent courses (Course 3 onwards).
(§1) Dose reduction to 40 mg/day and 30 mg/day was an option for patients experiencing certain drug-related AEs.

[2] = test system: HER2-negative, HR-positive mBC; assay: Phase II clinical study, Cohort B; assay type: in vivo, human
Description: (§2) A Phase II, open-label, multicenter trial was conducted in Belgium and Germany. Two Cohorts of patients were included: • Cohort A: Patients with triple negative mBC • Cohort B: Patients with HER2-negative, HR-positive mBC. • Primary endpoint for Cohort A and B initially was objective response as determined by response evaluation criteria in solid tumours (RECIST) criteria, as described by P. Therasse et al., J Natl Cancer Inst 2000, 92, 205-216. For Cohort A this was modified by amendment to clinical benefit (CB), i.e. complete response (CR), partial response (PR) and stable disease (SD) for at least 4 courses. • Secondary endpoints were time to progression, progression-free survival (PFS), overall survival (OS), time to objective response, duration of objective response, safety and pharmacokintics (PK). Clinical benefit (CR, PR, SD) was a secondary endpoint for Cohort B. • A total of 80 patients was planned to be enrolled into the trial: 80, i.e. 40 patients per cohort. […] Additional predose plasma samples were taken on Day 15 of Course 1, on Day 1 of Course 2 and on Day 1 of all subsequent courses (Course 3 onwards).
as §1
• Confirmed diagnosis of Stage IV HER2-negative metastatic breast cancer (HER22+ and fluorescence in situ hybridization-negative or HER21+ or negative) • Progression following no more than two lines of chemotherapy including adjuvant, not including hormone treatments for Cohort B • Age ≧18 years • Life expectancy of at least 6 months • Written informed consent • Eastern Cooperative Oncology Group (ECOG) performance score 0-2 • Measurable disease according to RECIST criteria • Availability of tumour samples (fresh or paraffin material) for EGFR-testing. • No prior treatment with EGFR/HER1 or HER2 inhibiting agent • Adequate liver, kidney and bone marrow function • No concomitant treatment with other investigational drugs • No other anti-cancer-therapy within four weeks prior to the first treatment with the trial drug. • Concurrent treatment with biphosphonates is allowed.
• ER-positive and/or PgR-positive patients: ER-status and PgR-status must be assessed by IHC and Allred (Harvey J M et al., J Clin Oncol 1999, 17(5), 1474-1481).

BT20 = assay: triple negative breast cell panel, EC50 2D/3D; assay type: cell-based; details: Homo sapiens, BT-20
HCC 1143 = assay: triple negative breast cell panel, EC50 2D/3D; assay type: cell-based; details: Homo sapiens, HCC1143
MDA-MB-231 = assay: triple negative breast cell panel, EC50 2D/3D; assay type: cell-based; details: Homo sapiens
SUM 149PT = assay: triple negative breast cell panel, EC50 2D/3D; assay type: cell-based; details: Homo sapiens, SUM149PT
HCC 70 = assay: triple negative breast cell panel, EC50 2D/3D; assay type: cell-based; details: Homo sapiens, HCC70
CAMA-1 = assay: triple negative breast cell panel, EC50 2D/3D; assay type: cell-based; details: Homo sapiens
BT 549 = assay: triple negative breast cell panel, EC50 2D/3D; assay type: cell-based; details: Homo sapiens
triple negative mBC = details: Cohort A
Description: as §2, §1
• HR-negative patients: estrogen receptor (ER) status and progesterone receptor (PgR) status must be assessed by immunohistochemistry (IHC) and Allred (Harvey J M et al., J Clin Oncol 1999, 17(5), 1474-1481).

SUM149 Xenografts = assay: triple negative, EGFR positive SUM149 Xenografts in mice; assay type: in vivo
[3] = HCC 1937, 2D, read-out: EC50 [nM] 2D
[4] = HCC 1937, 3D, read-out: EC50 [nM] 3D
[5] = HCC 1806, 2D, read-out: EC50 [nM] 2D
[6] = HCC 1806, 3D, read-out: EC50 [nM] 3D
[7] = 50 treated patients, 50 mg/day oral
[8] = BT20, 2D, read-out: EC50 [nM] 2D
[9] = BT20, 3D, read-out: EC50 [nM] 3D
[10] = HCC 1143, 2D, read-out: EC50 [nM] 2D
[11] = HCC 1143, 3D, read-out: EC50 [nM] 3D
[12] = MDA-MB-231, 2D, read-out: EC50 [nM] 2D
[13] = MDA-MB-231, 3D, read-out: EC50 [nM] 3D
[14] = HCC 70, 2D, read-out: EC50 [nM] 2D
[15] = HCC 70, 3D, read-out: EC50 [nM] 3D
[16] = CAMA-1, 2D, read-out: EC50 [nM] 2D
[17] = CAMA-1, 3D, read-out: EC50 [nM] 3D
[18] = BT 549, 2D, read-out: EC50 [nM] 2D
[19] = three patients with clinical benefit for >4 months

SMILES: CN(C)C/C=C/C(=O)Nc1cc2c(Nc3ccc(F)c(Cl)c3)ncnc2cc1O[C@H]1CCOC1 [BIBW 2992, 4-[(3-chloro-4-fluorophenyl)amino]-6-{[4-(N,N-dimethylamino)-1-oxo-2-buten-1-yl]amino}-7-((S)-tetrahydrofuran-3-yloxy)-quinazo line]
- EC50 (MDA-MB-468): 1250 nM
- EC50 (HCC 1937; [3]): > 4000 nM
- EC50 (HCC 1937; [4]): > 4000 nM
- EC50 (HCC 1806; [5]): > 4000 nM
- EC50 (HCC 1806; [6]): 47 nM
- patients discontinued due to dose-reducing toxicities ([1]; 50 treated patients): 15 patients
- patients discontinued due to other AEs ([1]; 50 treated patients): four
- patients discontinued treatment due to AEs [1, 7]: Nineteen
- safety profile [1, 7]: safety profile similar to other EGFR TKIs
- patients discontinued due to disease progression ([1]; all 50 treated patients): Thirty-one
- patients discontinued due to disease progression [2]: 12 patients
- objective response (OR), RECIST ([2]; 50 mg/day oral): No OR
- patients with SD for ≧4 cycles ([2]; 50 mg/day oral): 1 patient
- patients with a best response of SD ([2]; 21 patients included, 50 mg/day oral): 5 patients
- EC50 (BT20; [8]): > 4000 nM
- EC50 (BT20; [9]): 23 nM
- EC50 (HCC 1143; [10]): > 4000 nM
- EC50 (HCC 1143; [11]): > 1000 nM
- EC50 (MDA-MB-231; [12]): > 10000 nM
- EC50 (MDA-MB-231; [13]): 2150 nM
- EC50 (SUM 149PT): 17 nM
- EC50 (HCC 70; [14]): 571 nM
- EC50 (HCC 70; [15]): > 1000 nM
- EC50 (CAMA-1; [16]): 234 nM
- EC50 (CAMA-1; [17]): 277 nM
- EC50 (BT 549; [18]): 2020 nM
- EC50 (BT 549; BT 549, 3D, read-out: EC50 [nM] 3D): 956 nM
- patients discontinued due to disease progression (triple negative mBC): 19 patients
- objective response (OR), RECIST (triple negative mBC; 50 mg/day oral): No objective response
- patients remaining on treatment with SD for >4 cycles (triple negative mBC; 50 mg/day oral): three
- overall median PFS (triple negative mBC; 29 patients): 53 days
- patients with a best response of SD (triple negative mBC; 29 patients included, 50 mg/day oral): Seven
- mean PFS (triple negative mBC; [19]): 217 days
- median PFS (triple negative mBC; [19]): 184 days

SMILES: CCOc1cc2ncc(C#N)c(Nc3ccc(OCc4ccccn4)c(Cl)c3)c2cc1NC(=O)/C=C/CN(C)C [HKI-272]
- T/C [%] Day 42 (SUM149 Xenografts; 50 mg/kg/d (MTD)): 36%

SMILES: C#Cc1cccc(Nc2ncnc3cc(OCCOC)c(OCCOC)cc23)c1 [erlotinib]
- T/C [%] Day 42 (SUM149 Xenografts; 75 mg/kg/d (MTD)): 6%

SMILES: CS(=O)(=O)CCNCc1ccc(-c2ccc3ncnc(Nc4ccc(OCc5cccc(F)c5)c(Cl)c4)c3c2)o1 [lapatinib, reference compound]
- EC50 (MDA-MB-468): > 1000 nM
- EC50 (HCC 1937; [3]): > 4000 nM
- EC50 (HCC 1937; [4]): > 4000 nM
- EC50 (HCC 1806; [5]): > 4000 nM
- EC50 (HCC 1806; [6]): > 4000 nM
- EC50 (BT20; [8]): > 4000 nM
- EC50 (BT20; [9]): 467 nM
- EC50 (HCC 1143; [10]): > 4000 nM
- EC50 (HCC 1143; [11]): > 4000 nM
- EC50 (MDA-MB-231; [12]): > 10000 nM
- EC50 (MDA-MB-231; [13]): > 4000 nM
- EC50 (SUM 149PT): 1360 nM
- EC50 (HCC 70; [14]): > 1000 nM
- EC50 (HCC 70; [15]): > 1000 nM
- T/C [%] Day 42 (SUM149 Xenografts; 2 × 100 mg/kg/d (MTD)): 25%
- EC50 (CAMA-1; [16]): > 1000 nM
- EC50 (CAMA-1; [17]): 3010 nM
- EC50 (BT 549; [18]): > 1000 nM
